# In ChEMBL document CHEMBL3045652, “Biorational glycol diesters as dietary toxins versus bioefficacy of sucrose octanoate against lepidopteran larvae” (Ind Crops Prod, 2012):
# Activity calls are given as the source filed them. No cut-off for these calls is given here.
# Tests used:
# Helicoverpa armigera [1] = experiment: Insecticidal activity against second-instar larval stage of Helicoverpa armigera fed with artificial diet containing compound assessed as mortality after 7 days; assay type: functional; conditions: 168 h
# Spodoptera litura [2] = experiment: Insecticidal activity against second-instar larval stage of Spodoptera litura fed with artificial diet containing compound assessed as mortality after 7 days; assay type: functional; conditions: 168 h
# Helicoverpa armigera [3] = experiment: Antifeedant activity against third-instar larval stage of Helicoverpa armigera fed with artificial diet containing compound assessed as efficiency index of ingested food at 8.21 mg/ml after 3 days (reference value: 52%); assay type: functional
# Helicoverpa armigera [4] = experiment: Antifeedant activity against third-instar larval stage of Helicoverpa armigera fed with artificial diet containing compound assessed as relative consumption rate at 8.21 mg/ml after 3 days (reference value: 1.88 +/- 0.14 mg/mg/day); assay type: functional
# Spodoptera litura [5] = experiment: Antifeedant activity against third-instar larval stage of Spodoptera litura fed with artificial diet containing compound assessed as relative consumption rate at 5.9 mg/ml after 3 days (reference value: 2.13 +/- 0.18 mg/mg/day); assay type: functional
# Spodoptera litura [6] = experiment: Antifeedant activity against third-instar larval stage of Spodoptera litura fed with artificial diet containing compound assessed as efficiency index of ingested food at 5.9 mg/ml after 3 days (reference value: 64.5%); assay type: functional
# Helicoverpa armigera [7] = experiment: Antifeedant activity against third-instar larval stage of Helicoverpa armigera fed with artificial diet containing compound assessed as relative growth rate at 8.21 mg/ml after 3 days (reference value: 0.97 +/- 0.13 mg/mg/day); assay type: functional
# Spodoptera litura [8] = experiment: Insecticidal activity against second-instar larval stage of Spodoptera litura fed with artificial diet containing compound assessed as growth inhibition after 7 days; assay type: functional, organism-based; conditions: for EC50: 168 h
# Helicoverpa armigera [9] = experiment: Insecticidal activity against second-instar larval stage of Helicoverpa armigera fed with artificial diet containing compound assessed as growth inhibition after 7 days; assay type: functional, organism-based; conditions: for EC50: 168 h
# Spodoptera litura [10] = experiment: Antifeedant activity against third-instar larval stage of Spodoptera litura fed with artificial diet containing compound assessed as relative growth rate at 5.9 mg/ml after 3 days (reference value: 1.37 +/- 0.12 mg/mg/day); assay type: functional
# Spodoptera litura [11] = experiment: Antifeedant activity against third-instar larval stage of Spodoptera litura fed with artificial diet containing compound assessed as relative growth rate at 5.6 mg/ml after 3 days (reference value: 1.37 +/- 0.12 mg/mg/day); assay type: functional
# Spodoptera litura [12] = experiment: Antifeedant activity against third-instar larval stage of Spodoptera litura fed with artificial diet containing compound assessed as relative consumption rate at 5.6 mg/ml after 3 days (reference value: 2.13 +/- 0.18 mg/mg/day); assay type: functional
# Helicoverpa armigera [13] = experiment: Antifeedant activity against third-instar larval stage of Helicoverpa armigera fed with artificial diet containing compound assessed as relative growth rate at 7.38 mg/ml after 3 days (reference value: 0.97 +/- 0.13 mg/mg/day); assay type: functional
# Helicoverpa armigera [14] = experiment: Antifeedant activity against third-instar larval stage of Helicoverpa armigera fed with artificial diet containing compound assessed as relative consumption rate at 7.38 mg/ml after 3 days (reference value: 1.88 +/- 0.14 mg/mg/day); assay type: functional
# Helicoverpa armigera [15] = experiment: Antifeedant activity against third-instar larval stage of Helicoverpa armigera fed with artificial diet containing compound assessed as efficiency index of ingested food at 7.38 mg/ml after 3 days (reference value: 52%); assay type: functional
# Spodoptera litura [16] = experiment: Antifeedant activity against third-instar larval stage of Spodoptera litura fed with artificial diet containing compound assessed as efficiency index of ingested food at 5.6 mg/ml after 3 days (reference value: 64.5%); assay type: functional
# Spodoptera litura [17] = experiment: Antifeedant activity against third-instar larval stage of Spodoptera litura fed with artificial diet containing compound assessed as relative consumption rate at 3.34 mg/ml after 3 days (reference value: 2.13 +/- 0.18 mg/mg/day); assay type: functional
# Spodoptera litura [18] = experiment: Insecticidal activity against second-instar larval stage of Spodoptera litura assessed as increase in mortality applied as spray at 1 to 10 mg/ml after 72 hr; assay type: functional, organism-based
# Helicoverpa armigera [19] = experiment: Insecticidal activity against second-instar larval stage of Helicoverpa armigera assessed as increase in mortality applied as spray at 1 to 10 mg/ml after 72 hr; assay type: functional, organism-based
# Helicoverpa armigera [20] = experiment: Antifeedant activity against third-instar larval stage of Helicoverpa armigera fed with artificial diet containing compound assessed as relative consumption rate at 5.16 mg/ml after 3 days (reference value: 1.88 +/- 0.14 mg/mg/day); assay type: functional
# Spodoptera litura [21] = experiment: Antifeedant activity against third-instar larval stage of Spodoptera litura fed with artificial diet containing compound assessed as relative growth rate at 3.34 mg/ml after 3 days (reference value: 1.37 +/- 0.12 mg/mg/day); assay type: functional
# Helicoverpa armigera [22] = experiment: Antifeedant activity against third-instar larval stage of Helicoverpa armigera fed with artificial diet containing compound assessed as efficiency index of ingested food at 5.16 mg/ml after 3 days (reference value: 52%); assay type: functional
# Helicoverpa armigera [23] = experiment: Antifeedant activity against third-instar larval stage of Helicoverpa armigera fed with artificial diet containing compound assessed as relative growth rate at 5.16 mg/ml after 3 days (reference value: 0.97 +/- 0.13 mg/mg/day); assay type: functional
# Spodoptera litura [24] = experiment: Antifeedant activity against third-instar larval stage of Spodoptera litura fed with artificial diet containing compound assessed as efficiency index of ingested food at 3.34 mg/ml after 3 days (reference value: 64.5%); assay type: functional
# Helicoverpa armigera [25] = experiment: Antifeedant activity against third-instar larval stage of Helicoverpa armigera fed with artificial diet containing compound assessed as efficiency index of ingested food at 7.15 mg/ml after 3 days (reference value: 52%); assay type: functional
# Spodoptera litura [26] = experiment: Antifeedant activity against third-instar larval stage of Spodoptera litura fed with artificial diet containing compound assessed as efficiency index of ingested food at 6.25 mg/ml after 3 days (reference value: 64.5%); assay type: functional
# Helicoverpa armigera [27] = experiment: Antifeedant activity against third-instar larval stage of Helicoverpa armigera fed with artificial diet containing compound assessed as relative consumption rate at 7.15 mg/ml after 3 days (reference value: 1.88 +/- 0.14 mg/mg/day); assay type: functional
# Spodoptera litura [28] = experiment: Antifeedant activity against third-instar larval stage of Spodoptera litura fed with artificial diet containing compound assessed as relative growth rate at 6.25 mg/ml after 3 days (reference value: 1.37 +/- 0.12 mg/mg/day); assay type: functional
# Helicoverpa armigera [29] = experiment: Antifeedant activity against third-instar larval stage of Helicoverpa armigera fed with artificial diet containing compound assessed as relative growth rate at 7.15 mg/ml after 3 days (reference value: 0.97 +/- 0.13 mg/mg/day); assay type: functional
# Spodoptera litura [30] = experiment: Antifeedant activity against third-instar larval stage of Spodoptera litura fed with artificial diet containing compound assessed as relative consumption rate at 6.25 mg/ml after 3 days (reference value: 2.13 +/- 0.18 mg/mg/day); assay type: functional
# Spodoptera litura [31] = experiment: Antifeedant activity against third-instar larval stage of Spodoptera litura fed with artificial diet containing compound assessed as relative consumption rate at 8.32 mg/ml after 3 days (reference value: 2.13 +/- 0.18 mg/mg/day); assay type: functional
# Spodoptera litura [32] = experiment: Antifeedant activity against third-instar larval stage of Spodoptera litura fed with artificial diet containing compound assessed as efficiency index of ingested food at 8.32 mg/ml after 3 days (reference value: 64.5%); assay type: functional
# Helicoverpa armigera [33] = experiment: Antifeedant activity against third-instar larval stage of Helicoverpa armigera fed with artificial diet containing compound assessed as relative growth rate at 9.82 mg/ml after 3 days (reference value: 0.97 +/- 0.13 mg/mg/day); assay type: functional
# Spodoptera litura [34] = experiment: Antifeedant activity against third-instar larval stage of Spodoptera litura fed with artificial diet containing compound assessed as relative growth rate at 8.32 mg/ml after 3 days (reference value: 1.37 +/- 0.12 mg/mg/day); assay type: functional
# Helicoverpa armigera [35] = experiment: Antifeedant activity against third-instar larval stage of Helicoverpa armigera fed with artificial diet containing compound assessed as relative consumption rate at 9.82 mg/ml after 3 days (reference value: 1.88 +/- 0.14 mg/mg/day); assay type: functional
# Helicoverpa armigera [36] = experiment: Antifeedant activity against third-instar larval stage of Helicoverpa armigera fed with artificial diet containing compound assessed as efficiency index of ingested food at 9.82 mg/ml after 3 days (reference value: 52%); assay type: functional
# Helicoverpa armigera [37] = experiment: Antifeedant activity against third-instar larval stage of Helicoverpa armigera fed with artificial diet containing compound assessed as relative growth rate at 9.88 mg/ml after 3 days (reference value: 0.97 +/- 0.13 mg/mg/day); assay type: functional
# Spodoptera litura [38] = experiment: Antifeedant activity against third-instar larval stage of Spodoptera litura fed with artificial diet containing compound assessed as relative consumption rate at 8.25 mg/ml after 3 days (reference value: 2.13 +/- 0.18 mg/mg/day); assay type: functional
# Helicoverpa armigera [39] = experiment: Antifeedant activity against third-instar larval stage of Helicoverpa armigera fed with artificial diet containing compound assessed as relative consumption rate at 9.88 mg/ml after 3 days (reference value: 1.88 +/- 0.14 mg/mg/day); assay type: functional
# Spodoptera litura [40] = experiment: Antifeedant activity against third-instar larval stage of Spodoptera litura fed with artificial diet containing compound assessed as relative growth rate at 8.25 mg/ml after 3 days (reference value: 1.37 +/- 0.12 mg/mg/day); assay type: functional
# Spodoptera litura [41] = experiment: Antifeedant activity against third-instar larval stage of Spodoptera litura fed with artificial diet containing compound assessed as efficiency index of ingested food at 8.25 mg/ml after 3 days (reference value: 64.5%); assay type: functional
# Helicoverpa armigera [42] = experiment: Antifeedant activity against third-instar larval stage of Helicoverpa armigera fed with artificial diet containing compound assessed as efficiency index of ingested food at 9.88 mg/ml after 3 days (reference value: 52%); assay type: functional
smiles,measurement,setting,value
CCCC(=O)OCC(C)OC(=O)CCC (centres undefined),LC50,Helicoverpa armigera [1],2000 µg/mL
same,LC50,Spodoptera litura [2],2000 µg/mL
same,ECI,Helicoverpa armigera [3],38.2%
same,Activity,Helicoverpa armigera [4],1.77 mg/mg/day
same,Activity,Spodoptera litura [5],1.98 mg/mg/day
same,ECI,Spodoptera litura [6],12%
same,Activity,Helicoverpa armigera [7],0.67 mg/mg/day
same,growth inhibition (GI),Spodoptera litura [8],Dose-dependent effect
same,EC50,Spodoptera litura [8],4210 µg/mL
same,growth inhibition (GI),Helicoverpa armigera [9],Dose-dependent effect
same,EC50,Helicoverpa armigera [9],5670 µg/mL
same,Activity,Spodoptera litura [10],1.04 mg/mg/day
CC(COC(=O)C(C)C)OC(=O)C(C)C (centres undefined),LC50,Helicoverpa armigera [1],2000 µg/mL
same,Activity,Spodoptera litura [11],1.09 mg/mg/day
same,LC50,Spodoptera litura [2],2000 µg/mL
same,Activity,Spodoptera litura [12],2.12 mg/mg/day
same,growth inhibition (GI),Spodoptera litura [8],Dose-dependent effect
same,EC50,Spodoptera litura [8],5210 µg/mL
same,growth inhibition (GI),Helicoverpa armigera [9],Dose-dependent effect
same,EC50,Helicoverpa armigera [9],7340 µg/mL
same,Activity,Helicoverpa armigera [13],0.58 mg/mg/day
same,Activity,Helicoverpa armigera [14],1.91 mg/mg/day
same,ECI,Helicoverpa armigera [15],30.4%
same,ECI,Spodoptera litura [16],13%
CCCCC(=O)OCCOC(=O)CCCC [ETHYLENE GLYCOL DIPENTANOATE],Activity,Spodoptera litura [17],2.09 mg/mg/day
same,LC50,Helicoverpa armigera [1],2000 µg/mL
same,LC50,Spodoptera litura [2],2340 µg/mL
same,Activity,Spodoptera litura [18],Active
same,Activity,Helicoverpa armigera [19],Active
same,Activity,Helicoverpa armigera [20],1.82 mg/mg/day
same,Activity,Spodoptera litura [21],0.64 mg/mg/day
same,ECI,Helicoverpa armigera [22],31.9%
same,growth inhibition (GI),Spodoptera litura [8],Dose-dependent effect
same,EC50,Spodoptera litura [8],1840 µg/mL
same,growth inhibition (GI),Helicoverpa armigera [9],Dose-dependent effect
same,EC50,Helicoverpa armigera [9],2120 µg/mL
same,Activity,Helicoverpa armigera [23],0.58 mg/mg/day
same,ECI,Spodoptera litura [24],4%
CCCCCCCC(=O)OCC(C)OC(=O)CCCCCCC (centres undefined),ECI,Helicoverpa armigera [25],37.9%
same,LC50,Helicoverpa armigera [1],2000 µg/mL
same,LC50,Spodoptera litura [2],2000 µg/mL
same,ECI,Spodoptera litura [26],18%
same,Activity,Helicoverpa armigera [27],1.86 mg/mg/day
same,Activity,Spodoptera litura [28],0.88 mg/mg/day
same,growth inhibition (GI),Spodoptera litura [8],Dose-dependent effect
same,EC50,Spodoptera litura [8],3820 µg/mL
same,growth inhibition (GI),Helicoverpa armigera [9],Dose-dependent effect
same,EC50,Helicoverpa armigera [9],4380 µg/mL
same,Activity,Helicoverpa armigera [29],0.7 mg/mg/day
same,Activity,Spodoptera litura [30],2.21 mg/mg/day
"CCCCC(=O)OCCCCCOC(=O)CCCC [PENTANE-1,5-DIPENTANOATE]",Activity,Spodoptera litura [31],2.02 mg/mg/day
same,ECI,Spodoptera litura [32],44%
same,LC50,Helicoverpa armigera [1],2000 µg/mL
same,LC50,Spodoptera litura [2],2000 µg/mL
same,Activity,Helicoverpa armigera [33],0.66 mg/mg/day
same,Activity,Spodoptera litura [34],0.94 mg/mg/day
same,Activity,Helicoverpa armigera [35],1.79 mg/mg/day
same,growth inhibition (GI),Spodoptera litura [8],Dose-dependent effect
same,EC50,Spodoptera litura [8],5010 µg/mL
same,growth inhibition (GI),Helicoverpa armigera [9],Dose-dependent effect
same,EC50,Helicoverpa armigera [9],5880 µg/mL
same,ECI,Helicoverpa armigera [36],37.2%
"CCCC(CC)C(=O)OCCCCCOC(=O)C(CC)CCC (centres undefined) [PENTANE-1,5-DI-(2-ETHYLHEXANOATE)]",Activity,Helicoverpa armigera [37],0.72 mg/mg/day
same,LC50,Helicoverpa armigera [1],2000 µg/mL
same,LC50,Spodoptera litura [2],2000 µg/mL
same,Activity,Spodoptera litura [38],1.99 mg/mg/day
same,Activity,Helicoverpa armigera [39],1.8 mg/mg/day
same,Activity,Spodoptera litura [40],1.06 mg/mg/day
same,ECI,Spodoptera litura [41],46%
same,ECI,Helicoverpa armigera [42],40%
same,growth inhibition (GI),Spodoptera litura [8],Dose-dependent effect
same,EC50,Spodoptera litura [8],7850 µg/mL
same,growth inhibition (GI),Helicoverpa armigera [9],Dose-dependent effect
same,EC50,Helicoverpa armigera [9],5560 µg/mL
